Experimental data taken from US7855290B2, “Pyridine derivatives and pyrimidine derivatives (3)” (Eisai R&D Management Co., Ltd., priority 2005, dated 2010).

Columns and labels:
[1] = biological target: T1, His6-HGFR (HGFR cytoplasmic domain) (Homo sapiens, UniProt P08581); assay: Inhibitory activity against HGFR tyrosine kinase activity (HTRF); format: biochemical; settings: biotin-poly(GT), ATP, 30° C. 10 min
T1 construct: made in house; host or cells: Sf9 insect cells (Spodoptera frugiperda), baculovirus, pFastBac-HT vector
From the text: The cytoplasmic domain of HGFR (Genbank Accession No. J02958) is a 1.3 kb DNA fragment beginning with Lys974 and including a stop codon, and described by Park et al. (Proc. Natl. Acad. Sci. U.S.A. 84(18), 6379-6383, 1987). The DNA fragment was isolated from the human placental cDNA library (purchased from Clontech) by PCR (TaKaRa Ex Taq™ Kit, purchased from TaKaRa) using two kinds of primers (SEQ ID NO: 1,5′-[…]-3′ and SEQ ID NO: 2,5′-[…]-3′, purchased from Invitrogen). The DNA fragment was cloned into a baculovirus transplace vector (pFastBac™-HT (purchased from GIBCO BRL)) to produce a recombinant construct. […] EGFR was purchased from Sigma (Production No. E-2645).
To the suspension of Sf9 cells (3×10^8 cells) in SF-900II medium (purchased from Invitrogen) containing 2% FBS was added a solution of HGFR transfected baculovirus above (4 ml), followed by a shaking culture at 27° C. for 48 hrs. The cells infected with the HGFR transfected baculovirus were centrifuged at 1,000 rpm, 4° C. for 5 min to remove the supernatant. The precipitated infected cells were suspended in 80 ml of ice-cold PBS, and centrifuged at 1,000 rpm, 4° C. for 5 min to remove the supernatant. The precipitated infected cells were suspended in 40 ml of ice-cold Lysis Buffer (50 mM Tris-HCl (pH 8.5), 5 mM 2-mercaptoethanol, 100 mM KCl, 1 mM PMSF and 1% (v/v) NP-40). The suspension was centrifuged at 12,000 rpm, 4° C. for 30 min to provide a supernatant.
The supernatant was loaded onto an Ni-NTA agarose column (3 ml, purchased from Qiagen) equilibrated with 30 ml of Buffer A (20 mM Tris-HCl (pH 8.5), 5 mM 2-mercaptoethanol, 500 mM KCl, 20 mM imidazole and 10% (v/v) glycerol). The column was washed with 30 ml of Buffer A, 6 ml of Buffer B (20 mM Tris-HCl (pH 8.5), 5 mM 2-mercaptoethanol, 1 M KCl, and 10% (v/v) glycerol) and 6 ml of Buffer A in this order. Then, the column was eluted with 6 ml of Buffer C (20 mM Tris-HCl (pH 8.5), 5 mM 2-mercaptoethanol, 100 mM KCl, 100 mM imidazole, and 10% (v/v) glycerol) to provide a fraction. The fraction was entrapped in a dialysis membrane (purchased from Spectrum Laboratories), dialyzed at 4° C. overnight with 1 L of dialysis buffer (20 mM Tris-HCl (pH 7.5), 10% (v/v) glycerol, 1 mM dithiothreitol, 0.1 mM Na3VO4 and 0.1 mM EGTA), and stored at −80° C. until used. […] The VEGFR2 cytoplasmic domain, the FGFR1 cytoplasmic domain, and the PDGFRβ cytoplasmic domain were fused with six histidine at the N terminus by the similar method to produce respective recombinant proteins (His6-VEGFR2, His6-FGFR1, and His6-PDGFRβ).
To each well of a 96-well round plate (purchased from NUNC, Production No. 163320) were added 10 μl of a solution for kinase reaction (200 mM Hepes (pH 7.4), 80 mM MgCl2, 16 mM MnCl2 and 2 mM Na3VO4), 250 ng of biotinylated poly(Glu4: Tyr1) (biotin-poly(GT), purchased from Japan Schering) (6 μl, 15-fold diluted with distilled water), 30 ng of His6-HGFR (10 μl, 60-fold diluted with 0.4% BSA) and a test substance dissolved in dimethylsulfoxide (4 μl, 100-fold diluted with 0.1% BSA) to mess up to 30 μl. To the well was added 10 μl of 4 μM ATP (purchased from Sigma) diluted with distilled water to incubate at 30° C. for 10 min, followed by adding 10 μl of 500 mM EDTA (pH 8.0) (purchased from Wako Pure Chemicals) to provide a kinase reaction solution.
The tyrosine-phosphorylated biotin-poly(GT) was detected using the Homogenous Time-Resolved Fluorescence (HTRF) method (Analytical Biochemistry, 269, 94-104, 1999).

[2] = system: Human gastric cancer cells (MKN-45); assay: Inhibitory activity against the proliferation of human gastric cancer cells (MKN-45); format: cell-based; settings: 72 h, MKN-45, 1% FBS RPMI1640, 3 days, Cell Counting Kit-8
Description: Human gastric cancer cells (MKN-45) were suspended in a 1% FBS-containing RPMI1640 medium (purchased from Sigma). The cell suspension (1×10^4 cells/ml) was added in a 96-well plate for cell culture (purchased from NUNC, Production No. 167008) at 0.1 ml/well, and then cultured in a 5% CO2 incubator (37° C.) overnight. After the culture, each well was supplied with 0.1 ml of a test substance diluted with a 1% FBS-containing RPMI1640 medium, followed by culturing in a 5% CO2 incubator (37° C.) for 3 days. After the culture, each well was supplied with 10 μl of Cell Counting Kit-8 (purchased from DOJINDO, Production No. 343-07623), followed by incubation in a 5% CO2 incubator (37° C.) for about 1.5 hrs. After the incubation, using the Plate Reader MTP-500 (Corona Electric), the absorbance of each well was determined at a measurement wavelength of 450 nm and a reference wavelength of 660 nm.

T1 sequence (P08581 956-1390 limits assumed): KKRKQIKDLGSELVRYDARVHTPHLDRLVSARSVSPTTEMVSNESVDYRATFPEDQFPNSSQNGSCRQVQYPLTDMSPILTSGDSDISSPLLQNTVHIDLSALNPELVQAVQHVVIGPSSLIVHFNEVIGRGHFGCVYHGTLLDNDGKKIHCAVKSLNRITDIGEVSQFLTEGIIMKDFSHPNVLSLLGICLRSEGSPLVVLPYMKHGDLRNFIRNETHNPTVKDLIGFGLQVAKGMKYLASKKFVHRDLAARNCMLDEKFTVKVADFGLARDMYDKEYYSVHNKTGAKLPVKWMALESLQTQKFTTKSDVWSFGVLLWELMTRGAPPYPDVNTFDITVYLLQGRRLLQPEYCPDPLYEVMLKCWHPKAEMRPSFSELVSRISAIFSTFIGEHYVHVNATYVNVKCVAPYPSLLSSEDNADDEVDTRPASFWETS

## CN1CCC(N2CCN(C(=O)Nc3cc(Oc4ccc(NC(=O)C5(C(=O)Nc6ccc(F)cc6)CC5)cc4F)ccn3)CC2)CC1 [Example 19, N-(3-Fluoro-4-{[2-({[4-(1-methylpiperidin-4-yl)piperazin-1-yl]carbonyl}amino)pyridin-4-yl]oxy}phenyl)-N′-(4-fluorophenyl)cyclopropane-1,1-dicarboxamide]
[1]
  IC50: 61 nM
[2]
  IC50: 12 nM

## CN1CCN(C(=O)Nc2cc(Oc3cc(F)c(NC(=O)C4(C(=O)Nc5ccc(F)cc5)CC4)cc3F)ccn2)CC1 [Example 104, N-{2,5-Difluoro-4-[(2-{[(4-methylpiperazin-1-yl)carbonyl]amino}pyridin-4-yl]oxy}phenyl)-N′-(4-fluorophenyl)cyclopropane-1,1-dicarboxamide]
[1]
  IC50: 71 nM
[2]
  IC50: 6.8 nM

## O=C(Nc1cc(Oc2ccc(NC(=O)C3(C(=O)Nc4ccc(F)cc4)CC3)cc2)ccn1)N1CCOCC1 [Example 68, N-(4-Fluorophenyl)-N′-[4-({2-[(morpholin-4-ylcarbonyl)amino]pyridin-4-yl}oxy)phenyl]cyclopropane-1,1-dicarboxamide]
[1]
  IC50: 23 nM
[2]
  IC50: 134 nM

## CN1CCC(N(C)C(=O)Nc2cc(Oc3ccc(NC(=O)C4(C(=O)Nc5ccc(F)cc5F)CC4)c(F)c3)ccn2)CC1 [Example 56, N-(2,4-Difluorophenyl)-N′-(2-fluoro-4-{[2-({[methyl(1-methylpiperidin-4-yl)amino]carbonyl}amino)pyridin-4-yl]oxy}phenyl)cyclopropane-1,1-dicarboxamide]
[1]
  IC50: 110 nM
[2]
  IC50: 53 nM

## CN(C)CCN1CCC(N(C)C(=O)Nc2cc(Oc3ccc(NC(=O)C4(C(=O)Nc5ccc(F)cc5)CC4)cc3)ccn2)CC1 [Example 39, N-(4-{[2-({[{1-[2-(Dimethylamino)ethyl]piperidin-4-yl}(methyl)amino]carbonyl}amino)pyridin-4-yl]oxy}phenyl)-N′-(4-fluorophenyl)cyclopropane-1,1-dicarboxamide]
[1]
  IC50: 100 nM
[2]
  IC50: 38 nM

## O=C(Nc1cc(Oc2ccc(NC(=O)C3(C(=O)Nc4ccc(F)cc4)CC3)cc2F)ccn1)N1CC(O)C1 [Example 80, N-{3-Fluoro-4-[(2-{[(3-hydroxyazetidin-1-yl)carbonyl]amino}pyridin-4-yl)oxy]phenyl}-N′-(4-fluorophenyl)cyclopropane-1,1-dicarboxamide]
[1]
  IC50: 18 nM
[2]
  IC50: 18 nM

## CN(C)[C@H]1CCN(C(=O)Nc2cc(Oc3ccc(NC(=O)C4(C(=O)Nc5ccc(F)cc5)CC4)cc3F)ccn2)C1 [Example 24, N-(4-{[2-({[(3S)-3-(Dimethylamino)pyrrolidin-1-yl]carbonyl}amino)pyridin-4-yl]oxy}-3-fluorophenyl)-N′-(4-fluorophenyl)cyclopropane-1,1-dicarboxamide]
[1]
  IC50: 48 nM
[2]
  IC50: 17 nM

## O=C(Nc1cc(Oc2ccc(NC(=O)C3(C(=O)Nc4ccc(F)cc4)CC3)c(F)c2)ccn1)N1CCC(N2CCNCC2)CC1 [Example 71, N-(4-Fluorophenyl)-N′-{2-fluoro-4-[(2-{[(4-piperazin-1-ylpiperidin-1-yl)carbonyl]amino}pyridin-4-yl)oxy]phenyl}cyclopropane-1,1-dicarboxamide]
[1]
  IC50: 121 nM
[2]
  IC50: 61 nM

## O=C(Nc1cc(Oc2ccc(NC(=O)C3(C(=O)Nc4ccc(F)cc4)CC3)cc2F)ccn1)N1CCCC1 [Example 66, N-(4-Fluorophenyl)-N′-[3-fluoro-4-({2-[(pyrrolidin-1-ylcarbonyl)amino]pyridin-4-yl}oxy)phenyl]cyclopropane-1,1′-dicarboxamide]
[1]
  IC50: 20 nM
[2]
  IC50: 31 nM

## COC1CN(C(=O)Nc2cc(Oc3ccc(NC(=O)C4(C(=O)Nc5ccc(F)cc5)CC4)c(F)c3)ccn2)C1 [Example 78, N-[2-Fluoro-4-[(2-{[(3-methoxyazetidin-1-yl)carbonyl]amino}pyridin-4-yl)oxy]phenyl}-N′-(4-fluorophenyl)cyclopropane-1,1-dicarboxamide]
[1]
  IC50: 14 nM
[2]
  IC50: 12 nM

## O=C(Nc1cc(Oc2ccc(NC(=O)C3(C(=O)Nc4ccc(F)cc4)CC3)c(F)c2)ccn1)N1CC(O)C1 [Example 72, N-{2-Fluoro-4-[(2-{[(3-hydroxyazetidin-1-yl)carbonyl]amino}pyridin-4-yl)oxy]phenyl}-N′-(4-fluorophenyl)cyclopropane-1,1-dicarboxamide]
[1]
  IC50: 10 nM
[2]
  IC50: 22 nM

## CCN1CCC(N(C)C(=O)Nc2cc(Oc3ccc(NC(=O)C4(C(=O)Nc5ccccc5)CC4)c(F)c3)ccn2)CC1 [Example 60, N-(4-{[2-({[(1-Ethylpiperidin-4-yl)(methyl)amino]carbonyl}amino)pyridin-4-yl]oxy}-2-fluorophenyl)-N′-phenylcyclopropane-1′-dicarboxamide]
[1]
  IC50: 82 nM
[2]
  IC50: 15 nM

## CN(C)CC1CN(C(=O)Nc2cc(Oc3ccc(NC(=O)C4(C(=O)Nc5ccc(F)cc5)CC4)c(F)c3)ccn2)C1 [Example 77, N-[4-({2-[({3-[(Dimethylamino)methyl]azetidin-1-yl}carbonyl)amino]pyridin-4-yl}oxy)-2-fluorophenyl]-N′-(4-fluorophenyl)cyclopropane-1,1-dicarboxamide]
[1]
  IC50: 58 nM
[2]
  IC50: 19 nM

## CN1CC(N2CCN(C(=O)Nc3cc(Oc4ccc(NC(=O)C5(C(=O)Nc6ccc(F)cc6)CC5)c(F)c4)ccn3)CC2)C1 [Example 17]
[1]
  IC50: 48 nM
[2]
  IC50: 14 nM

## CN1CCN(C(=O)Nc2cc(Oc3ccc(NC(=O)C4(C(=O)Nc5ccc(F)cc5)CC4)c(F)c3)ccn2)CC1 [Example 64, N-{2-Fluoro-4-[(2-{[(1-methylpiperazin-4-yl)carbonyl]amino}pyridin-4-yl)oxy]phenyl}-N′-(4-fluorophenyl)cyclopropane-1,1-dicarboxamide]
[1]
  IC50: 58 nM
[2]
  IC50: 57 nM

## O=C(Nc1cc(Oc2ccc(NC(=O)C3(C(=O)Nc4ccc(F)cc4)CC3)cc2F)ncn1)N1CCOCC1 [Example 35, N-[3-Fluoro-4-({6-{(morpholin-4-ylcarbonyl)amino}pyrimidin-4-yl}oxy)phenyl]-N′-(4-fluorophenyl)cyclopropane-1,1-dicarboxamide]
[1]
  IC50: 29 nM
[2]
  IC50: 230 nM

## CN(C)C1CCN(C(=O)Nc2cc(Oc3cc(F)c(NC(=O)C4(C(=O)Nc5ccc(F)cc5)CC4)cc3F)ncn2)CC1 [Example 102, N-(4-{[4-({[4-(Dimethylamino)piperidin-1-yl]carbonyl}amino)pyrimidin-6-yl]oxy}-2,5-difluorophenyl)-N′-(4-fluorophenyl)cyclopropane-1,1-dicarboxamide]
[1]
  IC50: 72 nM
[2]
  IC50: 40 nM
